Laboratory results taken from EP1501797B1, “3-(SUBSTITUTED AMINO)-1H-INDOLE-2-CARBOXYLIC ACID ESTER AND 3-(SUBSTITUTED AMINO)-BENZO[B]THIOPHENE-2-CARBOXYLIC ACID ESTER DERIVATIVES AS INTERLEUKIN-4 GENE EXPRESSION INHIBITORS” (Aventis Pharmaceuticals Inc., priority 2002, dated 2003).

Test system: IL-4
Assay: In vivo ovalbumin (OVA) mouse model, BALF IL-4
Set-up: species or system mice
Details: for IL-4 pg/ml (± SEM): 30 minutes before OVA challenge, BALF 24 hours, vehicle 1220.4 ± 207.7
Description: This model is designed to determine the ability of a test article to modulate an antigen-induced pulmonary inflammatory cell accumulation in sensitized Balb/c mice from Charles River Laboratories. The mice are given a two week time period from arrival date prior to sensitizations.
On days 0, 7, 14, each animal is injected intraperitoneal (i.p.) with a 0.2 ml Ovalbumin Hydragel solution. Each animal receives 10 µg of Ovalbumin in 0.2 mL of Hydragel, aluminum hydroxide adsorptive gel containing 2% aluminum oxide. […] On day 22, BALF samples are collected from one group of animals and used for cytokine analysis. On day 24, BALF is obtained from a second group of animals and used for differential cell counts.
Test System: Female Babl/cJ mice (Jackson Laboratories), approximately 6-9 weeks old, each weighing approximately 20 to 25 grams, are divided into ten animals per group.
Sensitization Regimen: Mice are sensitized by an intraperitoneal injection of 10 µg ovalbumin (OVA) mixed in 4 mg aluminum hydroxide Al(OH)3 gel suspension in 0.2 ml sterile saline on Days 0, 7 and 14. This suspension is prepared one hour before intraperitoneal injection into each mouse. The animals are ready for OVA challenge on Day 21.
Antigen Challenge: Animals are exposed to aerosolized OVA on day 21 (5% w/v in sterile saline) for 20 minutes. The aerosol is generated by a PARI-Master nebulizer, the outlet of which is connected to a small Plexiglas® chamber containing the animals. Bronchoalveolar lavage is performed on Day 22.
Method of Study Performance: On day 24, 72 hours following aerosol OVA exposure, a separate group of animals are anesthetized with urethane (0.15 - 0.2 gm/kg) and the trachea is exposed and cannulated. Lungs are lavaged with 2 x 0.5 ml Hank's balanced salt solution without Ca^2+ and Mg^2+ (HBSS; Gibco, Grand Island, NY) containing 0.1% EDTA. Lavage fluid is recovered after 30 sec by gentle aspiration and pooled for each animal. Samples are centrifuged at 2000 rpm for 15 minutes at 5°C. After centrifugation, individual supernatants are stored frozen at -80°C. The resulting pellet is resuspended in 0.5 ml of HBSS containing 0.1% EDTA. Total cells and eosinophils are determined using a Technicon Hl and cytoslides, respectively.
Administration of the Test/Control Article: The test article and vehicle dosing preparations are administered once to each anesthetized mouse intranasally using a 200 µl pipette at 30-60 minutes prior to OVA challenge. Each animal receives 50 µl (25 µl/nostril) at each time point. Method of Euthanasia: Urethane overdose at in-life completion.
Compounds administered 30 minutes before aerosol ovalbumin challenge in ova sensitized mice. BALF harvested 24 hours after aerosol challenge. N = 6/group.
Mice (12 animals per group) are sensitized with 0.2 ml of an AlOH3 hydrogel suspension (2% AlOH3) containing 50 µg/ml ovalbumin on days 0, 7 and 14. […] The glucocorticosteroid budesonide (10 mg/kg) is included as a control. All compounds are given in 0.5% methylcellulose/0.2% Tween 80, intranasally (50µl). After the OVA challenge for 24 hours, the mice underwent bronchoalveolar lavage and IL-4 and IL-13 levels in the BALF are determined by ELISA. Another group of mice underwent bronchoalveolar lavage (72 hours after treatment) to determine the number of the eosinophils (*p<0.05, **p<0.01).
Compounds are given (30 mg/kg), intranasally, once, 30 min before OVA challenge unless noted otherwise. BAL fluids are collected 24 hours after OVA challenge and the cytokine levels are measured by standard ELISAs.

O=C(O)c1[nH]c2ccccc2c1Nc1ccncc1 [Example 28, 3-(4-Pyridinylamino)-1H-indole-2-carboxylic acid]
IL-4 pg/ml (± SEM) (3 mg/kg intranasal): 835.1 ± 40.4 pg/mL
IL-4 pg/ml (± SEM) (10 mg/kg intranasal): 414.3 ± 115.5 pg/mL
IL-4 pg/ml (± SEM) (30 mg/kg intranasal): 123.9 ± 48.7 pg/mL
ED50 (Mus musculus, mice, intranasally, FIG. 1, read-out: ED50, allergen-induced IL-4 levels in the BALF): ~10 mg/kg
